Laboratory results published in patent US12291519B2, “2-hydroxycycloalkane-1-carbamoyl” (Idorsia Pharmaceuticals Ltd, priority 2019, dated 2025).

How the values were obtained:
human Gal-1 (hGal-1) = assay: Competitive binding assay: biotinylated hGal-1 binding to microplate-adsorbed asialofetuin (ASF); settings: Activity on hGal-1; binding of biotinylated hGal-1 to ASF-coated plates; mean values
How it was run: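 Biotinylated hGal-1 (300–1000 ng/mL; optionally a cysteine-free all-serine variant) incubated 3 h at 4 °C with compound on asialofetuin-coated plates, then streptavidin-peroxidase 1 h at 4 °C. ABTS readout at OD 410 nm after 30–45 min; IC50 given as mean of several runs.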

human Gal-3 (hGal-3) = human Gal-3 (hGal-3) (Homo sapiens (Human), UniProt P17931); assay: Competitive binding assay: biotinylated hGal-3 binding to microplate-adsorbed asialofetuin (ASF); settings: Activity on hGal-3; binding of biotinylated hGal-3 to ASF-coated plates; mean values
How it was run: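 Serially diluted compounds competed with biotinylated human Gal-3 for binding to plate-adsorbed asialofetuin over 3 h at 4 °C. Bound Gal-3 was detected with streptavidin-peroxidase (80 ng/mL, 1 h, 4 °C) and ABTS substrate. IC50 values are means of several measurements.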

Chain of human Gal-3 (hGal-3) (P17931 whole entry): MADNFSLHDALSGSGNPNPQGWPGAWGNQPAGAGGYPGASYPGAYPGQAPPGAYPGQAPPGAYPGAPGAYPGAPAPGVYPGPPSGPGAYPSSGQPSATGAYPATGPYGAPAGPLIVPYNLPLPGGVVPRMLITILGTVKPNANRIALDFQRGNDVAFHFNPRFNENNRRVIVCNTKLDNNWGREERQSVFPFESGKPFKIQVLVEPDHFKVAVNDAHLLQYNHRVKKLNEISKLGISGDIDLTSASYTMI
Chain of human Gal-1 (hGal-1) (P09382 2-135 limits assumed): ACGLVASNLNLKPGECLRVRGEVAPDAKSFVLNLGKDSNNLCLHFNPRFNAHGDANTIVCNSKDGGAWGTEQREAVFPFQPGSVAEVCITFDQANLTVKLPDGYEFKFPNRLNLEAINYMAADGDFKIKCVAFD

Row | SMILES | IC50 (human Gal-1 (hGal-1)) [µM] | IC50 (human Gal-3 (hGal-3)) [µM]
1 | CO[C@@H]1[C@@H](n2cc(-c3cc(F)c(F)c(F)c3)nn2)[C@@H](O)[C@@H](CO)O[C@H]1C(=O)N(c1cc(Cl)cc(C(F)(F)F)c1)[C@H]1CCCC[C@@H]1O [Example 95, (2R,3R,4S,5R,6R)-N-(3-chloro-5-(trifluoromethyl)phenyl)-5-hydroxy-N-((1S,2S)-2-hydroxycyclohexyl)-6-(hydroxymethyl)-3-methoxy-4-(4-(3,4,5-trifluorophenyl)-1H-1,2,3-triazol-1-yl)tetrahydro-2H-pyran-2-carboxamide] | 0.398 | 0.016
2 | O=C([C@@H]1O[C@H](CO)[C@H](O)[C@H](n2cc(-c3cc(F)c(F)c(F)c3)nn2)[C@H]1O)N(Cc1ncc(Cl)s1)[C@H]1CCCC[C@@H]1O [Example 23, (2R,3R,4S,5R,6R)-N-((5-chlorothiazol-2-yl)methyl)-3,5-dihydroxy-N-((1S,2S)-2-hydroxycyclohexyl)-6-(hydroxymethyl)-4-(4-(3,4,5-trifluorophenyl)-1H-1,2,3-triazol-1-yl)tetrahydro-2H-pyran-2-carboxamide] | 22.7 | 0.403
3 | O=C([C@@H]1O[C@H](CO)[C@H](O)[C@H](n2cc(-c3cc(F)c(F)c(F)c3)nn2)[C@H]1O)N(Cc1csc(Br)n1)[C@H]1CCCC[C@@H]1O [Example 20, (2R,3R,4S,5R,6R)-N-((2-bromothiazol-4-yl)methyl)-3,5-dihydroxy-N-((1S,2S)-2-hydroxycyclohexyl)-6-(hydroxymethyl)-4-(4-(3,4,5-trifluorophenyl)-1H-1,2,3-triazol-1-yl)tetrahydro-2H-pyran-2-carboxamide] | 11.7 | 0.352
4 | CO[C@@H]1[C@@H](n2cc(-c3ccc(Cl)c(Cl)c3)nn2)[C@@H](O)[C@@H](CO)O[C@H]1C(=O)N(c1cc(Cl)cc(C#N)c1)[C@H]1CCCC[C@@H]1O [Example 186, (2R,3R,4S,5R,6R)-N-(3-chloro-5-cyanophenyl)-4-(4-(3,4-dichlorophenyl)-1H-1,2,3-triazol-1-yl)-5-hydroxy-N-((1S,2S)-2-hydroxycyclohexyl)-6-(hydroxymethyl)-3-methoxytetrahydro-2H-pyran-2-carboxamide] | 0.21 | 0.017
5 | CO[C@@H]1[C@@H](n2cc(-c3cc(F)c(F)c(F)c3)nn2)[C@@H](O)[C@@H](CO)O[C@H]1C(=O)N(Cc1nc[nH]c1C)[C@H]1CCCC[C@@H]1O [Example 30, (2R,3R,4S,5R,6R)-5-hydroxy-N-((1S,2S)-2-hydroxycyclohexyl)-6-(hydroxymethyl)-3-methoxy-N-((5-methyl-1H-imidazol-4-yl)methyl)-4-(4-(3,4,5-trifluorophenyl)-1H-1,2,3-triazol-1-yl)tetrahydro-2H-pyran-2-carboxamide] | 10.4 | 0.575
6 | Cc1ncncc1CN(C(=O)[C@@H]1O[C@H](CO)[C@H](O)[C@H](n2cc(-c3cc(F)c(F)c(F)c3)nn2)[C@H]1O)[C@H]1CCCC[C@@H]1O [Example 29, (2R,3R,4S,5R,6R)-3,5-dihydroxy-N-((1S,2S)-2-hydroxycyclohexyl)-6-(hydroxymethyl)-N-((4-methylpyrimidin-5-yl)methyl)-4-(4-(3,4,5-trifluorophenyl)-1H-1,2,3-triazol-1-yl)tetrahydro-2H-pyran-2-carboxamide] | 4.41 | 0.232
7 | O=C([C@@H]1O[C@H](CO)[C@H](O)[C@H](n2cc(-c3nc(Cl)cs3)nn2)[C@H]1O)N(Cc1ccccc1C(F)(F)F)[C@H]1CCCC[C@@H]1O [Example 71, (2R,3R,4S,5R,6R)-4-(4-(4-chlorothiazol-2-yl)-1H-1,2,3-triazol-1-yl)-3,5-dihydroxy-N-((1S,2S)-2-hydroxycyclohexyl)-6-(hydroxymethyl)-N-(2-(trifluoromethyl)benzyl)tetrahydro-2H-pyran-2-carboxamide] | 1.31 | 0.143
8 | CO[C@@H]1[C@@H](n2cc(-c3cc(F)c(F)c(F)c3)nn2)[C@@H](O)[C@@H](CO)O[C@H]1C(=O)N(Cc1ccsc1C)[C@H]1CCCC[C@@H]1O [Example 38, (2R,3R,4S,5R,6R)-5-hydroxy-N-((1S,2S)-2-hydroxycyclohexyl)-6-(hydroxymethyl)-3-methoxy-N-((2-methylthiophen-3-yl)methyl)-4-(4-(3,4,5-trifluorophenyl)-1H-1,2,3-triazol-1-yl)tetrahydro-2H-pyran-2-carboxamide] | 1.68 | 0.207
9 | CO[C@@H]1[C@@H](n2cc(-c3cc(F)c(F)c(F)c3)nn2)[C@@H](O)[C@@H](CO)O[C@H]1C(=O)N(Cc1cc2ccccc2n1C)[C@H]1CCCC[C@@H]1O [Example 48, (2R,3R,4S,5R,6R)-5-hydroxy-N-((1S,2S)-2-hydroxycyclohexyl)-6-(hydroxymethyl)-3-methoxy-N-((1-methyl-1H-indol-2-yl)methyl)-4-(4-(3,4,5-trifluorophenyl)-1H-1,2,3-triazol-1-yl)tetrahydro-2H-pyran-2-carboxamide] | 2.24 | 0.344

More lines, now with the values ahead:

Row | IC50 (human Gal-1 (hGal-1)) [µM] | IC50 (human Gal-3 (hGal-3)) [µM] | SMILES
10 | 0.86 | 0.027 | CO[C@@H]1[C@@H](n2cc(-c3cc(F)cc(Cl)c3)nn2)[C@@H](O)[C@@H](CO)O[C@H]1C(=O)N(c1cc(Cl)cc(Cl)c1)[C@H]1CCCC[C@@H]1O [Example 139, (2R,3R,4S,5R,6R)-4-(4-(3-chloro-5-fluorophenyl)-1H-1,2,3-triazol-1-yl)-N-(3,5-dichlorophenyl)-5-hydroxy-N-((1S,2S)-2-hydroxycyclohexyl)-6-(hydroxymethyl)-3-methoxytetrahydro-2H-pyran-2-carboxamide]
11 | 0.386 | 0.013 | CO[C@@H]1[C@@H](n2cc(-c3ccc(Br)c(F)c3F)nn2)[C@@H](O)[C@@H](CO)O[C@H]1C(=O)N(c1cc(Cl)cc(C#N)c1)[C@H]1CCCC[C@@H]1O [Example 175, (2R,3R,4S,5R,6R)-4-(4-(4-bromo-2,3-difluorophenyl)-1H-1,2,3-triazol-1-yl)-N-(3-chloro-5-cyanophenyl)-5-hydroxy-N-((1S,2S)-2-hydroxycyclohexyl)-6-(hydroxymethyl)-3-methoxytetrahydro-2H-pyran-2-carboxamide]
12 | 2.32 | 0.026 | CO[C@@H]1[C@@H](n2cc(-c3cc(F)cc(F)c3)nn2)[C@@H](O)[C@@H](CO)O[C@H]1C(=O)N(c1cc(C)cc(Cl)c1)[C@H]1CCCC[C@@H]1O [Example 83, (2R,3R,4S,5R,6R)-N-(3-chloro-5-methylphenyl)-4-(4-(3,5-difluorophenyl)-1H-1,2,3-triazol-1-yl)-5-hydroxy-N-((1S,2S)-2-hydroxycyclohexyl)-6-(hydroxymethyl)-3-methoxytetrahydro-2H-pyran-2-carboxamide]
13 | 1.9 | 0.025 | CO[C@@H]1[C@@H](n2cc(-c3cc(F)cc(F)c3)nn2)[C@@H](O)[C@@H](CO)O[C@H]1C(=O)N(c1cccc(Br)c1)[C@H]1CCCC[C@@H]1O [Example 84, (2R,3R,4S,5R,6R)-N-(3-bromophenyl)-4-(4-(3,5-difluorophenyl)-1H-1,2,3-triazol-1-yl)-5-hydroxy-N-((1S,2S)-2-hydroxycyclohexyl)-6-(hydroxymethyl)-3-methoxytetrahydro-2H-pyran-2-carboxamide]
14 | 1.54 | 0.147 | CO[C@@H]1[C@@H](n2cc(-c3cc(F)c(F)c(F)c3)nn2)[C@@H](O)[C@@H](CO)O[C@H]1C(=O)N(c1ccc(C(F)(F)F)c(Cl)c1)[C@H]1CCCC[C@@H]1O [Example 91, (2R,3R,4S,5R,6R)-N-(3-chloro-4-(trifluoromethyl)phenyl)-5-hydroxy-N-((1S,2S)-2-hydroxycyclohexyl)-6-(hydroxymethyl)-3-methoxy-4-(4-(3,4,5-trifluorophenyl)-1H-1,2,3-triazol-1-yl)tetrahydro-2H-pyran-2-carboxamide]
15 | 0.34 | 0.018 | CO[C@@H]1[C@@H](n2cc(-c3cc(F)c(F)c(F)c3)nn2)[C@@H](O)[C@@H](CO)O[C@H]1C(=O)N(c1ccc(F)c(Br)c1)[C@H]1CCCC[C@@H]1O [Example 92, (2R,3R,4S,5R,6R)-N-(3-bromo-4-fluorophenyl)-5-hydroxy-N-((1S,2S)-2-hydroxycyclohexyl)-6-(hydroxymethyl)-3-methoxy-4-(4-(3,4,5-trifluorophenyl)-1H-1,2,3-triazol-1-yl)tetrahydro-2H-pyran-2-carboxamide]
16 | 2.01 | 0.049 | CO[C@@H]1[C@@H](n2cc(-c3cc(F)c(F)c(F)c3)nn2)[C@@H](O)[C@@H](CO)O[C@H]1C(=O)N(c1cccc(F)c1)[C@H]1CCCC[C@@H]1O [Example 114, (2R,3R,4S,5R,6R)-N-(3-fluorophenyl)-5-hydroxy-N-((1S,2S)-2-hydroxycyclohexyl)-6-(hydroxymethyl)-3-methoxy-4-(4-(3,4,5-trifluorophenyl)-1H-1,2,3-triazol-1-yl)tetrahydro-2H-pyran-2-carboxamide]
17 | 0.259 | 0.05 | CO[C@@H]1[C@@H](n2cc(-c3cccc(F)c3C)nn2)[C@@H](O)[C@@H](CO)O[C@H]1C(=O)N(c1cc(Cl)cc(C#N)c1)[C@H]1CCCC[C@@H]1O [Example 75, (2R,3R,4S,5R,6R)-N-(3-chloro-5-cyanophenyl)-4-(4-(3-fluoro-2-methylphenyl)-1H-1,2,3-triazol-1-yl)-5-hydroxy-N-((1S,2S)-2-hydroxycyclohexyl)-6-(hydroxymethyl)-3-methoxytetrahydro-2H-pyran-2-carboxamide]
18 | 0.266 | 0.013 | CO[C@@H]1[C@@H](n2cc(-c3cc(F)c(F)c(F)c3)nn2)[C@@H](O)[C@@H](CO)O[C@H]1C(=O)N(c1cc(Br)cc(Br)c1)[C@H]1CCCC[C@@H]1O [Example 97, (2R,3R,4S,5R,6R)-N-(3,5-dibromophenyl)-5-hydroxy-N-((1S,2S)-2-hydroxycyclohexyl)-6-(hydroxymethyl)-3-methoxy-4-(4-(3,4,5-trifluorophenyl)-1H-1,2,3-triazol-1-yl)tetrahydro-2H-pyran-2-carboxamide]
